Laboratory results as given in US8093299B2, “Methods of treating bowel disorders” (Amgen Inc., priority 2007, dated 2012).
“And” between values parts separate entries of the source, which are not always exact repeats. Equal values may be shown once. “Also recorded” adds a separate entry of the source. Blank lines part the entries; values can stand above or below the compound they belong to.

Legend:
[1] = test system: 5% DSS induced colitis in SJL/J mice; test: DSS-induced colitis in mice, histopathologic inflammation score of large intestine; type: in vivo, mouse
Source text: Animals. Female SJL/J mice aged 8-10 weeks were used for this study, purchased from Jackson Laboratories (Bar Harbour, Me.). Female Spraque-Dawley rats (approximately 150-300 grams) were purchased from Charles River Laboratories Inc. (Wilmington, Mass.). Mdr1a−/− mice (FVB.129P2-Abcb1a^tm1BorN7), weight 20-21 g, 8 weeks at initiation of experiments, were housed and maintained (5 per cage) in the animal facility at Amgen Washington. All animals were cared for according to the standard protocols of the Amgen Institutional Animal Care and Use Committee.
Chemical reagents. Dextran sodium sulfate (DSS) with molecular mass 36-50 kDa was purchased from ICN Chemicals, Aurora, Ohio. The DSS solution was prepared as a 5% w/v solution in sterile water (Baxter Healthcare Corporation) and sterile filtered through a 0.45 μm filter before being added to drinking water. Water for the negative control groups was similarly filtered. FK506, (also known as Tacrolimus, active ingredient in Prograf®), chemical name [3S-[3R*[E(1S*,3S*,4S*)],4S*,5R*,8S*,9E,12R*,14R*,15S*,16R*,18S*,19S*,26aR*]]-5,6,8,11,12,13,14,15,16,17,18,19,24,25,26,26a-hexadecahydro-5,19-dihydroxy-3-[2-(4-hydroxy-3-methoxycyclohexyl)-1-methylethenyl]-14,16-dimethoxy-4,10,12,18-tetramethyl-8-(2-propenyl)-15,19-epoxy-3H-pyrodi[2,1-c][1,4]oxaazacyclotricosine-1,7,20,21(4H, 23H)-tetrone monohydrate, was used as a positive control for the inflammation treatment. Tacrolimus is a macrolide immunosuppressant produced by Streptomyces tsukubaensis. The solution of FK506 (Prograf®, Astellas) was prepared as follows: 0.1 mg/ml solution in phosphate buffered saline (PBS) was prepared by diluting 5 mg/ml stock solution. The animals were dosed with FK506 at 1 mg/kg in 200 μl of PBS.
Calcimimetic solutions (Compound A, 3-(2-chlorophenyl)-N-((1R)-1-(3-(methyloxy)phenyl)ethyl)-1-propanamine, Compound B, (1R)-N-((6-(methyloxy)-4′-(trifluoromethyl)-3-biphenylyl)methyl)-1-phenylethanamine, Compound C, N-(2-chloro-5-((((1R)-1-phenylethyl)amino)methyl)phenyl)-5-methyl-3-isoxazolecarboxamide, and Compound D, N-(2-chloro-5-((((1R)-1-phenylethyl)amino)methyl)phenyl)-2-pyridinecarboxamide) were formulated and dosed in free base equivalents at volumes determined by the pharmacologist. Formulation vehicle was 20% (w/v) Captisol (β-Cyclodextrin Sulfobutyl Ether Sodium Salt, Research Grade from CyDex, Inc.) in water with a final pH of 2.0-2.2 at room temperature, adjusted with HCl and NaOH as required. Final concentrations of DMSO never exceeded 0.1% (v/v).
DSS colitis in mice. All experiments were performed on groups of 8 to 10 SJL-J mice, housed in the same cage. For disease induction, mice were given a 5% DSS ad libitum as drinking water for 9 days.
Postmortem evaluation. Mice and rats were euthanized by CO2 asphyxiation. The large intestine were removed from the carcass, evaluated for gross lesions and three individual non-adjacent segments of proximal, middle and distal large intestine 2 centimeters long were immersed in the Zinc Formalin fix for 24 hours. At the end of 24 hours the sections were washed with tap water and put into 70% ethanol. Each section was then cut into three 3 mm pieces (9 pieces per animal), processed into paraffin blocks, and sections were cut in 5 μm sections and stained with hematoxylin and eosin.
Histopathologic changes of the proximal, middle, and distal small and large intestine was scored as a global assessment of inflammation based on inflammatory infiltrate, edema, mucosal erosions or ulcerations as described in Table 6.
For disease induction, treated mice were given 5% DSS in water ad libitum as drinking water for 9 days as described in Example 1 and were concurrently treated orally during that period with one of the treatments listed in Table 8.
FIG. 1 and Table 8 summarize the effect of the calcimimetic compound B on colonic inflammation in 5% DSS induced colitis. Animals were euthanized with carbon dioxide on day nine post treatment. […]

[2] = Absorption from the gut into the bloodstream
[3] = test system: colitis in mdr1a-/- mice induced by H. bilis; test: Colitis in mdr1a-/- mice infected with Helicobacter bilis (clinical score, disease onset, histology); type: in vivo, mouse; conditions: for Total LI score (Max = 12), individual animals / GI Inflammation LI DISTAL, individual animals / GI Inflammation LI MIDDLE, individual animals / GI Inflammation LI PROXIMAL, individual animals: listed as R-B; for GI Inflammation LI DISTAL, individual animals / GI Inflammation LI MIDDLE, individual animals / GI Inflammation LI PROXIMAL, individual animals: score 0-4; for disease onset compared to vehicle control group: Log-Rank test, p-value=0.04
[4] = Serum calcium and phosphorus in mdr1a-/- colitis study; type: in vivo, mouse; conditions: day 38
Description: (§1) All mice were necropsied on day 38 post initial inoculation. Mice were euthanized by CO2 asphyxiation. Blood was obtained by intracardiac puncture and collected in serum separator tubes. Serum was harvested and stored at −80° C. Colons were dissected below the cecum and just above the anus, and the contents of the lumen were removed. Sections of the proximal, middle, and distal colon regions were fixed in 10% neutral buffered formalin for histopathological analysis.
(§2) Serum clinical chemistry analysis was performed on the Olympus AU400 using standard tests and protocols. Calcium and phosphorus measurements were performed on undiluted serum for all samples. Serum cytokines and chemokines were assayed by Lincoplex mouse cytokine/chemokine muliplex immunoassasy (Millipore; Billerica, Mass.) per manufacturer instructions.
(§3) Results for serum analytes were expressed as the mean±standard error of the mean (SEM). A one-way ANOVA with Tukey's post test was performed using GraphPad Prism. A p-value of 0.05 was used in the calculation to determine whether there were significant differences between any two groups. Results for disease onset were expressed as a standard survival curve. A Log-Rank (Mantel-Cox) Test was performed using GraphPad Prism to determine significance. A p-value of 0.05 was used in the calculation to determine whether there were significant differences between any two groups. Results for clinical score and histology score were expressed as the mean±SEM. A Cochran-Mantel-Haenszel mean score test was performed using SAS software. A p-value of 0.05 was used in the calculation to determine whether there were significant differences between any two groups.

IP-10 = test: Serum IP-10 in mdr1a-/- colitis study; type: in vivo, mouse
Description: as §1, §2, §3

[5] = 30 mg/kg oral, 5% DSS 9 days, vs Captisol vehicle
[6] = 10 mg/kg oral, 5% DSS 9 days, vs Captisol vehicle, p<0.01
[7] = R-Compound B 10 and 3 mg/kg groups

absorption from the gut into the bloodstream [2]: not to be absorbed readily
Structure (SMILES): Cc1cc(C(=O)Nc2cc(CN[C@H](C)c3ccccc3)ccc2Cl)no1 [Compound C, N-(2-chloro-5-((((1R)-1-phenylethyl)amino)methyl)phenyl)-5-methyl-3-isoxazolecarboxamide]
inflammation scores in all parts of colon compared to vehicle (FIG. 2) ([1]; 30 mg/kg oral, 5% DSS): reduce inflammation scores
decrease in mean large intestine inflammatory score, combined [1, 5]: 30%
decrease in mean large intestine inflammatory score, distal [1, 5]: 49%
decrease in mean large intestine inflammatory score, middle [1, 5]: 20%
decrease in mean large intestine inflammatory score, proximal [1, 5]: 15%

Structure (SMILES): COc1ccc(CN[C@H](C)c2ccccc2)cc1-c1ccc(C(F)(F)F)cc1 [Compound B, (1R)-N-((6-(methyloxy)-4′-(trifluoromethyl)-3-biphenylyl)methyl)-1-phenylethanamine]
animals lacking inflammatory changes (colon normal) ([1]; 10 mg/kg oral, 5% DSS 9 days): Four out of ten
mean large intestine inflammatory score, combined segments [1, 6]: statistically significant decreased
mean large intestine inflammatory score, middle segment [1, 6]: statistically significant decreased
mean large intestine inflammatory score, distal segment ([1]; 10 mg/kg oral, 5% DSS 9 days, vs Captisol vehicle, p<0.05): statistically significant decreased
Animals with colonic inflammation/total animals ([1]; 5% DSS 9 days, SJL/J mice, oral, Compound B 10 mg/kg, FK 506 1 mg/kg): 6/10
mean inflammatory score in combined colonic segments compared to FK 506 treatment ([1]; Compound B 10 mg/kg vs FK 506 1 mg/kg, oral, 5% DSS): statistically significant (p<0.05) decrease
Average LI score ([3]; 3 mg/kg PO daily, day 38): 1.6
GI Inflammation LI DISTAL, Segment Mean ([3]; 3 mg/kg PO daily, day 38): 0.60
GI Inflammation LI MIDDLE, Segment Mean ([3]; 3 mg/kg PO daily, day 38): 0.60
GI Inflammation LI PROXIMAL, Segment Mean ([3]; 3 mg/kg PO daily, day 38): 0.40
Total LI score (Max = 12), individual animals ([3]; 3 mg/kg PO daily, day 38): 0 (8×) and 8 (2×)
GI Inflammation LI DISTAL, individual animals ([3]; 3 mg/kg PO daily, day 38): 0 (8×) and 3 (2×)
GI Inflammation LI MIDDLE, individual animals ([3]; 3 mg/kg PO daily, day 38): 0 (8×) and 3 (2×)
GI Inflammation LI PROXIMAL, individual animals ([3]; 3 mg/kg PO daily, day 38): 0 (8×) and 2 (2×)
day on which an animal began showing clinical signs of colitis (disease onset) ([3]; 3 mg/kg PO daily, first and second animal, listed as R-Compound B): 17 days and 31 days
day on which animals began showing clinical symptoms (disease onset) ([3]; 10 mg/kg PO daily): 32 days
disease onset compared to vehicle control group ([3]; 10 mg/kg PO daily): significantly different
disease onset compared to vehicle control group ([3]; 10 mg/kg PO daily, listed as R-Compound B): statistically significant difference
Average LI score ([3]; 10 mg/kg PO daily, day 38): 0.9
GI Inflammation LI DISTAL, Segment Mean ([3]; 10 mg/kg PO daily, day 38): 0.30
GI Inflammation LI MIDDLE, Segment Mean ([3]; 10 mg/kg PO daily, day 38): 0.20
GI Inflammation LI PROXIMAL, Segment Mean ([3]; 10 mg/kg PO daily, day 38): 0.40
Total LI score (Max = 12), individual animals ([3]; 10 mg/kg PO daily, day 38): 2 and 0 (8×) and 7
GI Inflammation LI DISTAL, individual animals ([3]; 10 mg/kg PO daily, day 38): 0 (9×) and 3
GI Inflammation LI MIDDLE, individual animals ([3]; 10 mg/kg PO daily, day 38): 0 (9×) and 2
GI Inflammation LI PROXIMAL, individual animals ([3]; 10 mg/kg PO daily, day 38): 2 (2×) and 0 (8×)
clinical scores compared to vehicle group ([3]; 10 mg/kg PO daily, final day (day 38), p<0.05): significantly lower clinical scores
anal inflammation score of animals showing clinical symptoms [3, 7]: none had an anal inflammation score above moderate
development of diarrhea [3, 7]: no animal developed diarrhea
number of animals with clinical symptoms of disease on the final day of the study ([3]; day 38, per treatment group (S-Compound B 10 mg/kg, n=5; R-Compound B 10 mg/kg and 3 mg/kg, n=10 each)): one
percentage of animals with colon pathology ([3]; each R-Compound B group (10 and 3 mg/kg)): 20%
overall effect on development, onset, incidence and severity of colitis ([3]; mdr1a-/- mice, 10 or 3 mg/kg PO daily, listed as R-Compound B): attenuates the development of colitis; also recorded: delayed the onset of colitis and reduced the severity of disease; also recorded: reduced the incidence and severity of disease; also recorded: inhibited the development and severity of colitis
animals with colitis / colon pathology by histology ([3]; per group: R-Compound B 10 and 3 mg/kg each, S-Compound B 10 mg/kg): 2 out of 10
serum phosphorus compared to the S-Compound B treated group only ([4]; 3 mg/kg PO daily): significant elevation
serum calcium compared to CTLA4 and vehicle control groups ([4]; 10 mg/kg PO daily): significant calcium reductions
serum phosphorus levels compared to all control groups ([4]; 10 mg/kg PO daily): significantly elevated
serum calcium levels compared to uninfected controls ([4]; both R-Compound B groups (10 and 3 mg/kg PO daily)): significantly reduced
difference in production of serum IP-10 vs vehicle control group (IP-10; 10 mg/kg PO daily, p=0.06): approached significance
elevation of serum IP-10 (IP-10; treatment groups vs vehicle treated animals): less elevation

absorption from the gut into the bloodstream [2]: not to be absorbed readily
Structure (SMILES): C[C@@H](NCc1ccc(Cl)c(NC(=O)c2ccccn2)c1)c1ccccc1 [Compound D, N-(2-chloro-5-((((1R)-1-phenylethyl)amino)methyl)phenyl)-2-pyridinecarboxamide]
inflammation scores in all parts of colon compared to vehicle (FIG. 2) ([1]; 30 mg/kg oral, 5% DSS): reduce inflammation scores
animals lacking inflammatory changes (colon normal) ([1]; 30 mg/kg oral, 5% DSS 9 days): Two out of eight
decrease in mean large intestine inflammatory score, combined [1, 5]: 48%
decrease in mean large intestine inflammatory score, distal [1, 5]: 68%
decrease in mean large intestine inflammatory score, middle [1, 5]: 29%
decrease in mean large intestine inflammatory score, proximal [1, 5]: 44%
